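Compound exposure: 48 hours, 5 concentrations, 96-well plates. The concentration for 50% growth inhibition is given as GI50. TGI: total growth inhibition.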
Legend:
Test in all cases: NCI-60 cell line screen, 48 h
[1] = test system: U251 CNS
[2] = test system: UACC-257 melanoma
[3] = test system: TK-10 renal
[4] = test system: SK-MEL-2 melanoma
[5] = test system: K-562 leukemia
[6] = test system: MDA-MB-231 breast
[7] = test system: HT29 colon
[8] = test system: HOP-92 NSCLC
[9] = test system: OVCAR-8 ovarian
[10] = test system: BT-549 breast
[11] = test system: RPMI-8226 leukemia
[12] = test system: 786-0 renal
[13] = test system: COLO 205 colon
[14] = test system: SK-OV-3 ovarian
[15] = test system: RXF 393 renal
[16] = test system: SNB-19 CNS
[17] = test system: NCI-H460 lung
[18] = test system: SK-MEL-5 melanoma
[19] = test system: NCI-H23 lung
[20] = test system: SNB-75 CNS
[21] = test system: EKVX NSCLC
[22] = test system: PC-3 prostate
[23] = test system: SW-620 colon
[24] = test system: OVCAR-3 ovarian
[25] = test system: A498 renal
[26] = test system: SF-268 CNS
[27] = test system: A549 NSCLC
[28] = test system: OVCAR-5 ovarian
[29] = test system: ACHN renal
[30] = test system: LOX IMVI melanoma
[31] = test system: HCT-116 colon
[32] = test system: MDA-MB-468 breast
[33] = test system: MCF7 breast
[34] = test system: SF-539 CNS
[35] = test system: UACC-62 melanoma
[36] = test system: NCI-H522 lung
[37] = test system: MALME-3M melanoma
[38] = test system: SN12C renal
[39] = test system: MDA-MB-435
[40] = test system: KM12 colon
[41] = test system: SK-MEL-28 melanoma
[42] = test system: SF-295 CNS
[43] = test system: CAKI-1 renal
[44] = test system: HCT-15 colon
[45] = test system: MOLT-4 leukemia
[46] = test system: HS 578T breast
[47] = test system: HOP-62 NSCLC
[48] = test system: DU-145 prostate
[49] = test system: IGROV1 ovarian
[50] = test system: HCC-2998 colon
[51] = test system: NCI/ADR-RES ovarian
[52] = test system: HL-60(TB) leukemia
[53] = test system: UO-31 renal
[54] = test system: T-47D breast
[55] = test system: M14 melanoma
[56] = test system: CCRF-CEM leukemia
[57] = test system: NCI-H226 lung
[58] = test system: OVCAR-4 ovarian
[59] = test system: SR leukemia

Work on COc1ccc(-c2nc3cc(C)ccc3n2CC(=O)N=Nc2c(O)[nH]c3ccc(Br)cc23)cc1 yielded a GI50 [1] of 1.64 µM, a TGI [1] of 3.55 µM and a GI50 [2] of 1.95 µM. For the same molecule, the TGI [2] was 6.33 µM, the GI50 [3] was 3.63 µM and the TGI [3] was 20.6 µM. For the same molecule, the GI50 [4] was 3.28 µM, the TGI [4] was 18.6 µM and the GI50 [5] was 3.66 µM. The TGI [5] was greater than 84.5 µM, the GI50 [6] was 2.17 µM and the TGI [6] was 7.97 µM. It also gave a GI50 [7] of 1.98 µM, a TGI [7] of 4.36 µM and a GI50 [8] of 1.34 µM. For the same molecule, the TGI [8] was 4.59 µM, the GI50 [9] was 1.58 µM and the TGI [9] was 3.49 µM. For the same molecule, the GI50 [10] was 2.05 µM, the TGI [10] was 5.92 µM and the GI50 [11] was 2.98 µM. It also gave a TGI [11] of 42.2 µM, a GI50 [12] of 3.48 µM and a TGI [12] of 16.6 µM. For the same molecule, the GI50 [13] was 2.29 µM, the TGI [13] was 8.06 µM and the GI50 [14] was 3.92 µM. The TGI [14] was 38.3 µM, the GI50 [15] was 1.33 µM and the TGI [15] was 3.54 µM. It also gave a GI50 [16] of 3.14 µM, a TGI [16] of 49.6 µM and a GI50 [17] of 1.86 µM. For the same molecule, the TGI [17] was 4.1 µM, the GI50 [18] was 2.59 µM and the TGI [18] was 8.3 µM. It also gave a GI50 [19] of 1.93 µM, a TGI [19] of 5.88 µM and a GI50 [20] of 1.61 µM. It also gave a TGI [20] of 12.7 µM, a GI50 [21] of 2.1 µM and a TGI [21] of 11.2 µM. For the same molecule, the GI50 [22] was 2.07 µM, the TGI [22] was 14.5 µM and the GI50 [23] was 2.4 µM. For the same molecule, the TGI [23] was 9.15 µM, the GI50 [24] was 1.93 µM and the TGI [24] was 4.29 µM. It also gave a GI50 [25] of 24.9 µM, a TGI [25] of 60.1 µM and a GI50 [26] of 2.94 µM. It also gave a TGI [26] of 31.7 µM, a GI50 [27] of 1.75 µM and a TGI [27] of 3.95 µM. For the same molecule, the GI50 [28] was 2.56 µM, the TGI [28] was 13.6 µM and the GI50 [29] was 2.38 µM. The TGI [29] was 8.75 µM, the GI50 [30] was 1.48 µM and the TGI [30] was 3.29 µM. The GI50 [31] was 1.88 µM, the TGI [31] was 4.49 µM and the GI50 [32] was 1.88 µM. It also gave a TGI [32] of 4.41 µM, a GI50 [33] of 2.23 µM and a TGI [33] of 10.2 µM. For the same molecule, the GI50 [34] was 1.55 µM, the TGI [34] was 3.36 µM and the GI50 [35] was 1.78 µM. The TGI [35] was 6.09 µM, the GI50 [36] was 7.39 µM and the TGI [36] was 31.1 µM. For the same molecule, the GI50 [37] was 1.59 µM, the TGI [37] was 3.2 µM and the GI50 [38] was 2.16 µM. It also gave a TGI [38] of 10.6 µM, a GI50 [39] of 2.12 µM and a TGI [39] of 7.52 µM. The GI50 [40] was 2.81 µM, the TGI [40] was 16 µM and the GI50 [41] was 1.51 µM. For the same molecule, the TGI [41] was 2.96 µM, the GI50 [42] was 2.93 µM and the TGI [42] was 14.2 µM. The GI50 [43] was 3.6 µM, the TGI [43] was 29.1 µM and the GI50 [44] was 2.83 µM. It also gave a TGI [44] of 16.9 µM, a GI50 [45] of 3.22 µM and a TGI [45] of 44.5 µM. It also gave a GI50 [46] of 1.96 µM, a TGI [46] of 6.44 µM and a GI50 [47] of 2.31 µM. For the same molecule, the TGI [47] was 9.66 µM, the GI50 [48] was 3.29 µM and the TGI [48] was 16.1 µM. It also gave a GI50 [49] of 2.93 µM, a TGI [49] of 18.2 µM and a GI50 [50] of 2.75 µM. For the same molecule, the TGI [50] was 16.4 µM, the GI50 [51] was 1.88 µM and the TGI [51] was 5 µM. The GI50 [52] was 5.51 µM, the TGI [52] was greater than 84.5 µM and the GI50 [53] was 19.4 µM. It also gave a TGI [53] greater than 84.5 µM, a GI50 [54] of 2.85 µM and a TGI [54] of 34.6 µM. The GI50 [55] was 1.6 µM, the TGI [55] was 3.49 µM and the GI50 [56] was 3.05 µM. It also gave a TGI [56] of 32.1 µM, a GI50 [57] of 1.97 µM and a TGI [57] of 7.23 µM. For the same molecule, the GI50 [58] was 2.76 µM and the TGI [58] was 11.2 µM.

COc1cc(/C=C/C(=O)c2ccc(S(=O)(=O)NCCNc3nc(Nc4ccc(F)cc4)nc(N(C)C)n3)cc2)cc(OC)c1OC gave a GI50 [1] of 1.81 µM, a TGI [1] of 3.54 µM and a GI50 [2] of 15.1 µM. It also gave a TGI [2] of 31.4 µM, a GI50 [3] of 13.1 µM and a TGI [3] of 40.9 µM. The GI50 [4] was 13.5 µM, the TGI [4] was 28.3 µM and the GI50 [5] was 2.73 µM. For the same molecule, the TGI [5] was greater than 100 µM, the GI50 [6] was 4.41 µM and the TGI [6] was 21 µM. The GI50 [7] was 1.93 µM, the TGI [7] was 3.53 µM and the GI50 [8] was 11.5 µM. The TGI [8] was 37.7 µM, the GI50 [9] was 11.1 µM and the TGI [9] was 34.7 µM. For the same molecule, the GI50 [10] was 2.25 µM, the TGI [10] was 7.52 µM and the GI50 [11] was 2.5 µM. The TGI [11] was 7.69 µM, the GI50 [12] was 2.94 µM and the TGI [12] was 12 µM. For the same molecule, the GI50 [13] was 4.78 µM, the TGI [13] was 19.2 µM and the GI50 [14] was 21.8 µM. It also gave a TGI [14] of 58.9 µM, a GI50 [15] of 1.45 µM and a TGI [15] of 3.12 µM. For the same molecule, the GI50 [16] was 11.2 µM, the TGI [16] was 23.4 µM and the GI50 [17] was 5.12 µM. For the same molecule, the TGI [17] was 17.8 µM, the GI50 [18] was 3.39 µM and the TGI [18] was 12.8 µM. For the same molecule, the GI50 [19] was 3.03 µM, the TGI [19] was 10.9 µM and the GI50 [21] was 4.85 µM. For the same molecule, the TGI [21] was 16.3 µM, the GI50 [22] was 3.22 µM and the TGI [22] was 30.7 µM. The GI50 [23] was 1.95 µM, the TGI [23] was 3.8 µM and the GI50 [24] was 6.18 µM. It also gave a TGI [24] of 26.4 µM, a GI50 [25] of 11.3 µM and a TGI [25] of 23.8 µM. It also gave a GI50 [26] of 11.7 µM, a TGI [26] of 63.7 µM and a GI50 [27] of 12.2 µM. It also gave a TGI [27] of 30.9 µM, a GI50 [28] of 12.9 µM and a TGI [28] of 26.8 µM. The GI50 [29] was 5.13 µM, the TGI [29] was 19.8 µM and the GI50 [30] was 1.71 µM. The TGI [30] was 3.1 µM, the GI50 [31] was 1.77 µM and the TGI [31] was 3.68 µM. The GI50 [32] was 2 µM, the TGI [32] was 4.58 µM and the GI50 [33] was 1.96 µM. For the same molecule, the TGI [33] was 4.28 µM, the GI50 [34] was 1.71 µM and the TGI [34] was 3.18 µM. It also gave a GI50 [35] of 8.28 µM, a TGI [35] of 21.4 µM and a GI50 [36] of 6.45 µM. For the same molecule, the TGI [36] was 20.1 µM, the GI50 [37] was 11.9 µM and the TGI [37] was 25.7 µM. The GI50 [38] was 5.71 µM, the TGI [38] was 21.5 µM and the GI50 [39] was 2.8 µM. It also gave a TGI [39] of 7.68 µM, a GI50 [41] of 6.13 µM and a TGI [41] of 19.3 µM. It also gave a GI50 [42] of 2.16 µM, a TGI [42] of 4.73 µM and a GI50 [59] of 2.42 µM. For the same molecule, the TGI [59] was 7.6 µM, the GI50 [43] was 5.2 µM and the TGI [43] was 35.6 µM. It also gave a GI50 [44] of 1.8 µM, a TGI [44] of 3.44 µM and a GI50 [46] of 8.24 µM. For the same molecule, the TGI [46] was 46.7 µM, the GI50 [47] was 14.1 µM and the TGI [47] was 29 µM. The GI50 [48] was 10.9 µM, the TGI [48] was 34.3 µM and the GI50 [49] was 16.1 µM. For the same molecule, the TGI [49] was 31 µM, the GI50 [50] was 1.62 µM and the TGI [50] was 3 µM. For the same molecule, the GI50 [51] was 3.38 µM, the TGI [51] was 13.4 µM and the GI50 [52] was 2.64 µM. The TGI [52] was 9.4 µM, the GI50 [53] was 4.45 µM and the TGI [53] was 17 µM. For the same molecule, the GI50 [54] was 3.48 µM, the TGI [54] was 51.3 µM and the GI50 [55] was 3.28 µM. It also gave a TGI [55] of 11.5 µM, a GI50 [56] of 3.62 µM and a TGI [56] greater than 100 µM. It also gave a GI50 [57] of 4.47 µM, a TGI [57] of 31.9 µM and a GI50 [58] of 8.02 µM. For the same molecule, the TGI [58] was 63.4 µM.
